Measurements published in ChEMBL document CHEMBL5528023, “Discovery of a CB2 and 5-HT1A receptor dual agonist for the treatment of depression and anxiety” (Eur J Med Chem, 2024).
≈ marks a conversion by molar mass, not a printed value. Calls of active or inactive are those of the source. The calls are words filed in the database; no cut-off is given here.

Experiments:
[1] = target: T1, Cannabinoid receptor 1 (Homo sapiens, UniProt P21554); assay: Antagonist activity at human CB1 receptor expressed in CHO cells assessed as inhibition of forskolin-stimulated cAMP formation by measuring maximum inhibition preincubated with compound for 10 mins followed by forskolin induction and measured after 30 mins by HTRF analysis relative to control; format: functional, cell-based; conditions: filed as antagonist, time 40.0 min
[2] = target: T2, Cannabinoid receptor 2 (Homo sapiens, UniProt P34972); assay: Agonist activity at human CB2 receptor expressed in CHO cells assessed as forskolin-stimulated cAMP formation preincubated with compound for 10 mins followed by forskolin induction and measured after 30 mins by HTRF analysis; format: functional, cell-based
[3] = target: T1, Cannabinoid receptor 1; assay: Antagonist activity at human CB1 receptor expressed in CHO cells assessed as inhibition of forskolin-stimulated cAMP formation preincubated with compound for 10 mins followed by forskolin induction and measured after 30 mins by HTRF analysis; format: functional, cell-based
[4] = Solubility of compound in phosphate buffer at pH 6.8 by HPLC analysis; format: physicochemical
[5] = AUClast in ICR mouse at 25 mg/kg, po measured upto 8 hrs by LC-MS/MS analysis; format: ADME, organism-based; conditions: in vivo
[6] = Half life in ICR mouse at 25 mg/kg, po measured upto 8 hrs by LC-MS/MS analysis; format: ADME, organism-based; conditions: in vivo
[7] = Tmax in ICR mouse at 25 mg/kg, po measured upto 8 hrs by LC-MS/MS analysis; format: ADME, organism-based; conditions: in vivo
[8] = Cmax in ICR mouse at 25 mg/kg, po measured upto 8 hrs by LC-MS/MS analysis; format: ADME, organism-based; conditions: in vivo
[9] = target: T2, Cannabinoid receptor 2; assay: Partial agonist activity at human CB2 receptor expressed in CHO cells assessed as forskolin-stimulated cAMP formation preincubated with compound for 10 mins followed by forskolin induction and measured after 30 mins by HTRF analysis; format: functional, cell-based
[10] = target: T2, Cannabinoid receptor 2; assay: Partial agonist activity at human CB2 receptor expressed in CHO cells assessed as forskolin-stimulated cAMP formation preincubated with compound for 10 mins followed by forskolin induction and measured after 30 mins by HTRF analysis relative to control; format: functional, cell-based; conditions: filed as partial agonist, time 40.0 min
[11] = target: T2, Cannabinoid receptor 2; assay: Agonist activity at human CB2 receptor expressed in CHO cells assessed as forskolin-stimulated cAMP formation preincubated with compound for 10 mins followed by forskolin induction and measured after 30 mins by HTRF analysis relative to control; format: functional, cell-based; conditions: time 40.0 min
[12] = tested on: Mus musculus; assay: Anxiolytic activity against stress-induced hyperthermia in ICR mouse assessed as reduction in basal core rectal temperature at 1 to 10 mg/kg, ip measured for 60 mins; format: functional, organism-based; conditions: dose 1-10 mg/kg
[13] = tested on: Mus musculus; assay: Anxiolytic activity against stress-induced hyperthermia in ip dosed ICR mouse assessed as reduction in delta temperature measured for 60 mins; format: functional, organism-based; conditions: dose 1-10 mg/kg
[14] = tested on: Mus musculus; assay: Induction of spontaneous locomotor activity in C57BL/6 mouse assessed as distance traveled at 10 mg/kg, ip measured at 1 hr; format: functional, organism-based
[15] = tested on: Mus musculus; assay: Antidepressant activity in C57BL/6J mouse at 1 mg/kg, ip administered for 14 days by tail suspension test; format: functional, organism-based; conditions: time 14.0 day
[16] = tested on: Mus musculus; assay: Antidepressant activity in C57BL/6J mouse assessed as reduction in immobility time at 3 to 10 mg/kg, ip administered for 12 days and measured after 15 mins by forced swim test; format: functional, organism-based; conditions: dose 3-10 mg/kg, time 17295.0 min
[17] = tested on: Mus musculus; assay: Antidepressant activity in C57BL/6J mouse assessed as reduction in immobility time at 3 to 10 mg/kg, ip administered for 12 days by forced swim test; format: functional, organism-based; conditions: dose 3-10 mg/kg, time 12.0 day
[18] = tested on: Mus musculus; assay: Antidepressant activity in C57BL/6J mouse assessed as […] at 1 mg/kg, ip administered for 14 days by tail suspension test; format: functional, organism-based; conditions: time 14.0 day
[19] = tested on: Mus musculus; assay: Antidepressant activity in C57BL/6J mouse assessed as reduction in immobility time at 1 mg/kg, ip administered for 12 days by forced swim test; format: functional, organism-based; conditions: time 12.0 day
[20] = tested on: Mus musculus; assay: Antidepressant activity in C57BL/6J mouse assessed as reduction in immobility time at 1 mg/kg, ip administered for 12 days and measured after 15 mins by forced swim test; format: functional, organism-based; conditions: time 17295.0 min
[21] = tested on: Mus musculus; assay: Induction of spontaneous locomotor activity in C57BL/6 mouse at 3 mg/kg, ip measured at 15 mins; format: functional, organism-based
[22] = tested on: Mus musculus; assay: Induction of spontaneous locomotor activity in C57BL/6 mouse at 1 mg/kg, ip measured at 1 hr; format: functional, organism-based
[23] = target: T3, 5-hydroxytryptamine receptor 1A (Homo sapiens) (UniProt P08908); assay: Agonist activity at human 5HT1A receptor expressed in HEK293 cells assessed as forskolin-stimulated cAMP formation preincubated with compound for 10 mins followed by forskolin induction and measured after 30 mins by HTRF analysis relative to control; format: functional, cell-based; conditions: filed as agonist, time 40.0 min
T3 sequence (whole entry): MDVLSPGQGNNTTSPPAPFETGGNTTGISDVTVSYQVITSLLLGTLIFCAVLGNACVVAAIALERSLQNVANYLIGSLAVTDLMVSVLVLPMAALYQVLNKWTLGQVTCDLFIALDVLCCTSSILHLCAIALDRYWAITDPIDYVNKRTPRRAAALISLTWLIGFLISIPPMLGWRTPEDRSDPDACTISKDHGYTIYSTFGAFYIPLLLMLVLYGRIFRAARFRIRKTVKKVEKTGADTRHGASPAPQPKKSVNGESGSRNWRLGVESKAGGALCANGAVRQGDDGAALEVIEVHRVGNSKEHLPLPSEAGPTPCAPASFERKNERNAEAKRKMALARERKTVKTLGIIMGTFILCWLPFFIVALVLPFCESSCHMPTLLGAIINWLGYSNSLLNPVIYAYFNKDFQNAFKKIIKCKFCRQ

[24] = target: T4, 5-hydroxytryptamine receptor 1A (Homo sapiens, UniProt P08908); assay: Agonist activity at human 5HT1A receptor expressed in HEK293 cells assessed as forskolin-stimulated cAMP formation preincubated with compound for 10 mins followed by forskolin induction and measured after 30 mins by HTRF analysis; format: functional, cell-based
T4 sequence (P08908 whole entry): T3 sequence (whole entry)

[25] = Cmax in ICR mouse brain at 25 mg/kg, po measured upto 8 hrs by LC-MS/MS analysis; format: ADME, organism-based
[26] = tested on: Mus musculus; assay: Induction of spontaneous locomotor activity in C57BL/6 mouse assessed as distance traveled at 1 to 10 mg/kg, ip administered once per day for 15 days and measured after 1 hr; format: functional, organism-based; conditions: dose 1-10 mg/kg, time 361.0 hrs
[27] = Toxicity in C57BL/6J mouse assessed as effect on body weight at 1 to 10 mg/kg, ip measured upto 10 days; format: organism-based; conditions: in vivo, 240 h, dose 1-10 mg/kg, time < 10 day
[28] = tested on: Mus musculus; assay: Anxiolytic activity against stress-induced hyperthermia in ip dosed ICR mouse assessed as reduction in basal core rectal temperature measured for 60 mins; format: functional, organism-based; conditions: dose 3-10 mg/kg

T1 sequence (P21554 whole entry): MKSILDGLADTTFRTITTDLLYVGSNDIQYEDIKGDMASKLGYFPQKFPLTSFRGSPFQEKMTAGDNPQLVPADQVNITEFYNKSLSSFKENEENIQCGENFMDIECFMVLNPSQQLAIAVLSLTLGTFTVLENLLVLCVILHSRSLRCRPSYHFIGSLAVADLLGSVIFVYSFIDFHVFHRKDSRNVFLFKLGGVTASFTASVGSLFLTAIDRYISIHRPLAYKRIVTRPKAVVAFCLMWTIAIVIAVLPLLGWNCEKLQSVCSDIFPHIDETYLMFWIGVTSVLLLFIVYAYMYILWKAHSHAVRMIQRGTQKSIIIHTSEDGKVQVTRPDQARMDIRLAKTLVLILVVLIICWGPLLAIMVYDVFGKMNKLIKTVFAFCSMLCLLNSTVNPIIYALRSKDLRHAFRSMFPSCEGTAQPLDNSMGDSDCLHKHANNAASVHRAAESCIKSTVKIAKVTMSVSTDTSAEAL
T2 sequence (P34972 whole entry): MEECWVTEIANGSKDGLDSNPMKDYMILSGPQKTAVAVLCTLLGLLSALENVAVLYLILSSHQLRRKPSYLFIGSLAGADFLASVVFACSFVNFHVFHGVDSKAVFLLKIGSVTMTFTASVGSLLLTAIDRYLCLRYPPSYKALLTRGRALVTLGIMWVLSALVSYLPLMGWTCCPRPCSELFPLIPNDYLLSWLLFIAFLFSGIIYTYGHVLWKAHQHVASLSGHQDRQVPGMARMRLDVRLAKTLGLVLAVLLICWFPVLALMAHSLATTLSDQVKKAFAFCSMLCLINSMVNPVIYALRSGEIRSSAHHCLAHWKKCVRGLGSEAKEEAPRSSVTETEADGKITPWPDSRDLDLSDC

Structure (SMILES)	Imax [1] [%]	EC50 [2] [nM]	IC50 [3] [nM]	AUC(0-t) at 8 h [5] [ng·h/mL]	half-life [6] [h]	Tmax [7] [h]	Cmax [8] [ng/mL]	other results
C=Cc1cc(O)c([C@@H]2C=C(C)CC[C@H]2C(=C)C)c(O)c1	83.3	> 10	6400					
C=C(C)[C@@H]1CCC(C)=C[C@H]1c1c(O)cc(CCCCC)c(C(=O)NC)c1O	75.3	> 10	2600					solubility [4]: 0.7 µg/mL (≈ 1.88 µM)
C=C(C)[C@@H]1CCC(C)=C[C@H]1c1c(O)cc(CCCCC)c(C(=O)NC2CC2)c1O	88.9	> 10	2300					
C=C(C)[C@@H]1CCC(C)=C[C@H]1c1c(O)cc(C#CC)cc1O	96.7	> 10	3300					
C=C(C)[C@@H]1CCC(C)=C[C@H]1c1ccc(C2CC2)c(C(N)=O)c1O	108		6500	170	2.9	0.4	90.4	EC50 [9]: 560 nM; Emax [10]: 44.7%
C=C(C)[C@@H]1CCC(C)=C[C@H]1c1c(O)cc(CCCCC)c(C(N)=O)c1O	86.3	> 10	2700					solubility [4]: 0.6 µg/mL (≈ 1.68 µM)
C=C(C)[C@@H]1CCC(C)=C[C@H]1c1c(O)cc(CCC)cc1O [CANNABIDIVARIN]	94.9	> 10	5600					
C=C(C)[C@@H]1CCC(C)=C[C@H]1c1c(O)cc(CCCCC)c(C(=O)NCCCCC)c1O		> 10	> 10000					
C=C(C)[C@@H]1CCC(C)=C[C@H]1c1c(O)cc(-c2ccccc2)cc1O		> 10	> 10000					
C=C(C)[C@@H]1CCC(C)=C[C@H]1c1c(O)cc(C2(CCCC)CC2)c(C(N)=O)c1O	93.8	480	3200	545	2.5	1.3	211	Emax [11]: 34.9%; Activity [12]: Active; Activity [13]: Dose-Dependent Effect; Activity [14]: inactive; Activity [15]: Active; Activity [16]: Active; Activity [17]: Active; Activity [18]: inactive; Activity [19]: Active; Activity [20]: Active; Activity [21]: Active; Activity [22]: Active; Emax [23]: 101%; EC50 [24]: 2700 nM; Cmax [25]: 217 ng/g; Activity [26]: Active; Activity [27]: Non-Toxic; Activity [28]: Dose-Dependent Effect
C=C(C)[C@@H]1CCC(C)=C[C@H]1c1c(O)cc(CCCCC)cc1O [CANNABIDIOL]	88.3			289	4.3	0.7	145	solubility [4]: 0.04 µg/mL (≈ 0.127 µM); Emax [23]: 64%; EC50 [24]: 4200 nM; Cmax [25]: 239 ng/g
C=C(C)[C@@H]1CCC(C)=C[C@H]1c1c(O)cc(C2CCCCC2)cc1O				616	2.7	0.8	216	EC50 [9]: 55.2 nM; Emax [10]: 62.7%
C=C(C)[C@@H]1CCC(C)=C[C@H]1c1c(O)cc(C2(CCCC)CC2)c(C(=O)NC)c1O	91.1	> 10000	2200					
